These results are taken from US10821177B2, “Induction of differential stress resistance and uses thereof” (University of Southern California, priority 2007, dated 2020).

In one series the test system is mice. The series is described as follows: Octreotide protection of mice against paraquat. It is filed as in vivo, mouse. The following applies: octreotide treatment.
Series [1] has as its system NXS2 neuroblastoma cells. The following applies: for No toxicity deaths: deaths / mice.
Excerpt: The murine NX3IT28 cell line was generated by hybridization of the GD2-negative C1300 murine neuroblastoma cell line (A/J background) with murine dorsal root ganglional cells from […] mice, as previously described. The NXS2 sublime was then created by the selection of NX3IT28 cells with high GD2 expression.
Six-to-seven-week-old female NJ mice, weighing 15-18 g were purchased from Harlan Laboratories (Harlan Italy, S. Pietro al Natisone, Italy) and housed in sterile enclosures under specific virus and antigen-free conditions. All procedures involving mice and their care were reviewed and approved by licensing and ethical committee of the National Cancer Research Institute, Genoa, Italy, and by the Italian Ministry of Health.
(§1) N J mice were pretreated with 1 mg/kg/day doses of human octreotide (OCT, ProSpec-Tany TechnoGene, Rehovot, Israel) for 4 days given slowly through the tail vein in a volume of 100 pl and then injected intravenously with murine neuroblastoma NXS2 cell line (200,000/mouse), as previously described. After tumor cell inoculum, some groups of animals were starved for 48 hours and then i.v. treated with 80 mg/kg of Etoposide Teva (Teva Pharma B.V., Mijdrecht, Holland), administered as a single dose. Additional daily doses of OCT were administered for 4 days after chemotherapy. Control groups of mice without diet starvation and OCT treatment were also investigated.
(§2) To determine toxicity and efficacy, mice were monitored routinely for weight loss and general behavior. […] Survival time was used as the main criterion for determining the efficacy of each treatment.
The statistical significance of differential survival between experimental groups of animals was determined by Kaplan-Meier curves and log-rank […] test by the use of StatDirect statistical software (Camcode, Ashwell, UK).
The murine NX3IT28 cell line was generated by hybridization of the GD2-negative C1300 murine neuroblastoma cell line (A/J background) with murine dorsal root ganglional cells from C57BL/6J mice, as previously described. The NXS2 subline was then created by the selection of NX3IT28 cells with high GD2 expression.
as §1, with “Six-to-seven-week-old female A/J mice, weighing 15-18 g were purchased from Harlan Laboratories (Harlan Italy, S. Pietro al Natisone, Italy) and housed in sterile enclosures under specific virus and antigen-free conditions. All procedures involving mice and their care were reviewed and approved by licensing and ethical committee of the National cancer Research Institute, Genoa, Italy, and by the Italian Ministry of Health. A/J” for “N J”, “μl” for “pl”, “injection,” for “inoculum,”
The statistical significance of differential survival between experimental groups of animals was determined by Kaplan-Meier curves and log-rank (Peto) test by the use of StatDirect statistical software (CamCode, Ashwell, UK). In some experiments, four-week-old female CD1 mice (Harlan), weighing 18-20 g were used to evaluate stress resistance after 60-hour diet starvation. These animals, i.v. injected with 110 mg/kg etoposide, were monitored routinely for weight loss and general behavior. Survival time was used as the main criterion for determining the differential stress resistance after short-term starvation.

Series [2] deals with A/J mice. Briefly: Resistance to high-dose etoposide (80 mg/kg) in A/J mice after STS and/or octreotide. Here is the method:
as §1, §2
as §1, with “Six-to-seven-week-old female A/J mice, weighing 15-18 g were purchased from Harlan Laboratories (Harlan Italy, S. Pietro al Natisone, Italy) and housed in sterile enclosures under specific virus and antigen-free conditions. All procedures involving mice and their care were reviewed and approved by licensing and ethical committee of the National cancer Research Institute, Genoa, Italy, and by the Italian Ministry of Health. A/J” for “N J”, “μl” for “pl”, “injection,” for “inoculum,”

The next series has as its system athymic (Nude-nu) mice. Briefly: Resistance to high-dose etoposide (100 mg/kg) in athymic (Nude-nu) mice. It is filed as in vivo, mouse. The settings on record: 100 mg/kg etoposide. Here is the method:
In other experiments, four-week old female athymic (Nude-nu) mice (Harlan), weighing 20-22 gr were used to evaluate stress resistance after a 48-hour starvation. These animals were i.v.-injected with 100 mg/Kg etoposide and then monitored routinely for weight loss and general behavior.

Series [3] has as its system NXS2 neuroblastoma cells. The series is described as follows: Effect of octreotide on etoposide cytotoxicity in NXS2 cells, trypan blue. It is filed as cell-based, mouse. The following applies: 10 or 50 micromolar octreotide, etoposide 1-3 μM, 72 hours. Here is the method:
FIG. 8. Survival of neuroblastoma (NXS2)-bearing mice. All mice were inoculated i.v. with 200,000 NXS2 cells/mouse on day 4. The different groups were treated as follows: A) Gr. 1: Control (16 mice)=i.v. inoculation with NSX2 tumor cells on day 4. Gr. 2: Oct (8 mice)=pre-treatment with 1 mg/kg/day octreotide for 4 days before and after tumor injection on day 4. Gr. 3: Oct/STS/Oct (8 mice)=pre-treatment with 1 mg/kg/day Oct before tumor cell injection on day 4+48-hour STS on days 4-6+post-treatment with 1 mg/kg/day Oct on days 8-11. Gr. […] Viability was determined by counting the cells with a contrast phase microscope. The proportion of dead (or living) cells was calculated by dividing the number of dead (or living) cells by the total number of cells per field. […]
NXS2 neuroblastoma cells treated with different concentrations of etoposide (1-3 μM) in presence or absence of octreotide (10 and 50 μM) for 72 hours were harvested by scraping, washed with complete medium, and incubated with trypan blue (0.04%; Sigma; St. Louis, Mo.) for 1 minute at 37° C. The cells were then placed in a Burker chamber (Tecnovetro, Monza Milan, Italy) and counted by viewing with a contrast phase microscope (Olympus Optical Co LTD, Tokyo, Japan). […] The proportion of dead (or living) cells was calculated by dividing the number of dead (or living) cells by the total number of cells per field.

The next series has as its system CD1 mice. Briefly: Resistance to high-dose etoposide (110 mg/kg) in CD1 mice after 60-hour starvation. It is filed as in vivo, mouse. The settings on record: 110 mg/Kg etoposide i.v., with or without 60-hour STS.
For series [4] the following is noted: humans; cited from earlier work.
Series [5] concerns LID mice. The series is described as follows: High-dose etoposide in LID mice. It is filed as in vivo, mouse. The following applies: 100 mg/kg etoposide i.v.; difference in survival not significant. As for the experimental part:
FIG. 21. Resistance to high-dose chemotherapy in LID mice. All mice received an i.v. injection of 100 mg/kg etoposide and were single caged throughout the experiment. The toxicity, evaluated by (A) percent survival and (B) daily weight measurements, are shown. p-value was calculated by log rank test (p=0.06, n=10).

Series [6] relates to A/J mice. The series is described as follows: High-dose doxorubicin toxicity in A/J mice with or without 48-hour STS. It is filed as in vivo, mouse. As for the experimental part:
FIG. 20. A/J mice, weighing 18-20 g, were starved for 48 hours (STS), and followed by a single intravenous injection of high dose doxorubicin (16 mg/kg). The toxicity, evaluated by (A) percent survival and (B) daily weight measurements, are shown.

Series [7] relates to LID mice. Briefly: Multiple treatments with doxorubicin in LID mice. The following applies: doxorubicin 20 mg/kg then 28 mg/kg 22 days later. It is filed as in vivo, mouse. As for the experimental part:
FIG. 22. Resistance to multiple treatments with doxorubicin. Doxorubicin was intravenously administered at 20 mg/kg on Day 0 and 28 mg/kg on Day 22 (n=5). The toxicity, evaluated by (A) percent survival and (B) daily weight measurements, are shown. p-value was calculated by log rank test (p<0.05).

Where [8] appears, read: Table 1, mice with metastases / mice.
[9] abbreviates: Table 1, mice with metastases / mice, 200,000 NXS2 cells i.v.
The mark [10] stands for this setting: Table 2, all mice followed until death, necropsy.
[11] abbreviates: Table 2, early etoposide toxicity deaths not considered.
Setting [12] is: Table 2, followed until death, necropsy.

Read-outs that look alike come from different tables or passages of the source. Marks after values point to notes of the source that are not given here.

Experimental for CD1 mice: In some experiments, four-week-old female CD1 mice (Harlan), weighing 18-20 g were used to evaluate stress resistance after 60 hours of starvation. These animals, i.v. injected with 110 mg/kg etoposide, were monitored routinely for weight loss and general behavior. Survival time was used as the main criterion for determining the differential stress resistance after short-term starvation.

Consider `C[C@@H](O)[C@@H]1NC(=O)[C@H](CCCCN)NC(=O)[C@@H](Cc2c[nH]c3ccccc23)NC(=O)[C@H](Cc2ccccc2)NC(=O)[C@@H](NC(=O)[C@H](N)Cc2ccccc2)CSSC[C@@H](C(=O)N[C@H](CO)[C@@H](C)O)NC1=O` [OCT, octreotide], for which the “protection of mice against the superoxide generator paraquat” value with mice was “sufficient to protect”. In the series on NXS2 neuroblastoma cells [1] (Table 1), the “Median survival” value was determined as 33 days and the “Survival Range” value lay within 31 to 37 days. The Hemorrhagic ascites with NXS2 neuroblastoma cells [1] (Table 1, affected mice / mice) was 8/8. Besides, in the series on NXS2 neuroblastoma cells [1] (setting [8]), the “Adrenal glaud (metastases)” value is 2/8, the “Kidneys (metastases)” value was 8/8 and the “Ovaries (metastases)” value is 8/8. In the series on NXS2 neuroblastoma cells [1] (setting [9]), the “Liver (metastases)” value is reported as 8/8. In the series on NXS2 neuroblastoma cells [1] (Table 2), the “Survival Range” value fell in the range of 31 to 37 days and the No toxicity deaths is given as 0/8. Also, the “Liver (metastases)” value with NXS2 neuroblastoma cells [1] (setting [10]) is 8/8. Further, the “Median survival” value in the series with NXS2 neuroblastoma cells [1] (setting [11]) is 33 days. Moreover, in the series with NXS2 neuroblastoma cells [1] (setting [12]), the “Adrenal gland (metastases)” value is reported as 2/8, the Hemorrhagic ascites is reported as 8/8, the “Kidneys (metastases)” value was 8/8 and the “Ovaries (metastases)” value is recorded as 8/8. For the same compound, in the series on NXS2 neuroblastoma cells [1] (octreotide alone, absence of short-term starvation), the “protection against NXS2-dependent death” value is given as “did not protect”. Moreover, in the series with A/J mice [2] (octreotide alone, mice), the “protection against etoposide toxicity” value was “not sufficient to protect”. Also, the mice that died result in the series with athymic (Nude-nu) mice (octreotide co-treatment and/or 48-hour starvation) is “all”. Moreover, in the series with NXS2 neuroblastoma cells [3], the “sensitization of NXS2 cells to etoposide treatment” value was “did not sensitize”.
For `COc1cc([C@@H]2c3cc4c(cc3[C@@H](O[C@@H]3O[C@@H]5CO[C@@H](C)O[C@H]5[C@H](O)[C@H]3O)[C@H]3COC(=O)[C@H]23)OCO4)cc(OC)c1O` [Eto, etoposide], in the series on CD1 mice, the “mice killed by etoposide” value is given as “all”. Also, the “excreted within 48 hours” value in series [4] is “up to 90%”. In the series with NXS2 neuroblastoma cells [1] (NXS2-injected mice without STS), the “day until which mice did not develop tumors” value stood at 80 days. In the series with NXS2 neuroblastoma cells [1] (Table 1), the “Median survival (days)” value is 90* days and the “Survival Range” value lay within 87 to 90 days. Also, in the series with NXS2 neuroblastoma cells [1] (Table 1, affected mice / mice), the Hemorrhagic ascites is given as 1/3*. Besides, in the series on NXS2 neuroblastoma cells [1] (setting [8]), the “Adrenal glaud (metastases)” value is recorded as 0/3*, the “Kidneys (metastases)” value is 1/3* and the “Ovaries (metastases)” value was 1/3*. In the series with NXS2 neuroblastoma cells [1] (setting [9]), the “Liver (metastases)” value is 1/3*. Further, in the series on NXS2 neuroblastoma cells [1] (Table 2), the “Survival Range” value fell in the range of 87 to 140 days and the No toxicity deaths is on record as 3/6. Also, the “Liver (metastases)” value with NXS2 neuroblastoma cells [1] (setting [10]) is on record as 3/3. In the series with NXS2 neuroblastoma cells [1] (setting [11]), the “Median survival” value was 130 days. In the series with NXS2 neuroblastoma cells [1] (setting [12]), the “Adrenal gland (metastases)” value was 0/3, the Hemorrhagic ascites is given as 3/3, the “Kidneys (metastases)” value was 3/3 and the “Ovaries (metastases)” value is reported as 0/3. Further, in the series on LID mice [5], the “resistance of LID mice compared to controls” value was “less resistant”. Moreover, in the series on A/J mice [2] (80 mg/Kg etoposide i.v., A/J mice), the “mice killed by etoposide” value stood at 43%. In the series on A/J mice [2] (80 mg/Kg etoposide, control mice), the “weight lost in the four days after etoposide treatment” value is “approximately 20%”. Further, in the series with athymic (Nude-nu) mice (nude mice), the “mice killed by etoposide” value worked out at 56% and the “weight change after etoposide” value is on record as “lost weight”.
As to `COc1cccc2c1C(=O)c1c(O)c3c(c(O)c1C2=O)C[C@@](O)(C(=O)CO)C[C@@H]3O[C@H]1C[C@H](N)[C@H](O)[C@H](C)O1` [doxorubicin], the survival entry with A/J mice [6] (16 mg/Kg doxorubicin i.v. after 48-hour STS (n=5)) was “protected all mice”; in the series with LID mice [7] (LID mice), “All LID mice survived”. In addition, the lethality result in the series on A/J mice [6] (16 mg/Kg doxorubicin i.v., mice not pre-starved) was “killed all the mice”. Also, the mice that died in the series on LID mice [7] (control mice) is 75%.
